In PubChem BioAssay (NCI):
Where “and” joins values, the source holds several entries; their conditions need not be identical. Equal values may be shown once.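 A five-concentration, 48-hour dose response in 96-well plates underlies each endpoint, interpolated linearly between surrounding concentrations. Here, GI50 denotes the concentration required for 50% inhibition of growth. At the TGI there is no net growth.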

What was measured:
Test in all cases: growth of human tumour cells (NCI), 48 h
ACHN renal = system: ACHN renal
DU-145 prostate = system: DU-145 prostate
HL-60(TB) leukemia = system: HL-60(TB) leukemia
MOLT-4 leukemia = system: MOLT-4 leukemia
PC-3 prostate = system: PC-3 prostate
SF-268 CNS = system: SF-268 CNS
SK-MEL-28 melanoma = system: SK-MEL-28 melanoma
SNB-19 CNS = system: SNB-19 CNS
SNB-75 CNS = system: SNB-75 CNS
TK-10 renal = system: TK-10 renal

Structure (SMILES)	GI50 (ACHN renal)	TGI (ACHN renal)	GI50 (DU-145 prostate)	TGI (DU-145 prostate)	GI50 (HL-60(TB) leukemia)	TGI (HL-60(TB) leukemia)	GI50 (MOLT-4 leukemia)	TGI (MOLT-4 leukemia)	GI50 (PC-3 prostate)	TGI (PC-3 prostate)	GI50 (SF-268 CNS)	TGI (SF-268 CNS)	GI50 (SK-MEL-28 melanoma)	TGI (SK-MEL-28 melanoma)	GI50 (SNB-19 CNS)	TGI (SNB-19 CNS)	GI50 (SNB-75 CNS)	TGI (SNB-75 CNS)	GI50 (TK-10 renal)	TGI (TK-10 renal)
CSc1nc2sc3c(c2c(=O)n1-c1ccc(C(C)C)cc1)CCC(=O)C3	2.25 µM	4.48 µM	3.75 µM	> 100 µM	2.72 µM	7.57 µM	2.64 µM	6.71 µM	1.6 µM	3.21 µM	2.18 µM	5.2 µM	2.45 µM	4.62 µM	2.15 µM	4.56 µM	2.22 µM	5.21 µM	2.58 µM	6.53 µM
O=C(O)CCC(=O)c1ccc2sc3ccccc3c2c1		> 100 µM		> 100 µM		> 100 µM		> 100 µM		> 100 µM		> 100 µM		> 100 µM		> 100 µM		> 100 µM		> 100 µM
CC1(C)CC(=O)C2=C(C1)OC(N)=C(c1nc(-c3ccccc3)cs1)C2c1ccc(Br)cc1 (centres undefined)	61.5 µg/mL	> 150 µg/mL	70.9 µg/mL	> 150 µg/mL	69.2 µg/mL	> 150 µg/mL	53.5 µg/mL	> 150 µg/mL	50.9 µg/mL	> 150 µg/mL	121 µg/mL	> 150 µg/mL	93.8 µg/mL	> 150 µg/mL	> 150 µg/mL	> 150 µg/mL	0.547 µg/mL	46.9 µg/mL	76.9 µg/mL	> 150 µg/mL
C=CCN1CC(=O)N2[C@@H](Cc3ccc(O)cc3F)C(=O)N(Cc3cccc(N4CC(N5CCN(CC)CC5)C4)n3)C[C@@H]2N1C(=O)NCc1ccccc1	0.393 µM	> 100 µM	0.0844 µM	> 100 µM	0.226 µM	26.5 µM	0.0276 µM		0.0359 µM	> 100 µM	0.0348 µM	> 100 µM	0.0405 µM	> 100 µM	0.0324 µM	> 100 µM	0.017 µM	0.131 µM	0.16 µM	> 100 µM
Cn1cc(C2=C(c3cccc(OC[C@@H](O)CO)c3)C(=O)NC2=O)c2ccccc21	16.5 µM	> 25 µM	> 25 µM	> 25 µM	> 25 µM	> 25 µM	16.1 µM	> 25 µM	> 25 µM	> 25 µM	> 25 µM	> 25 µM	> 25 µM	> 25 µM	> 25 µM	> 25 µM	0.0944 µM	> 25 µM	> 25 µM	> 25 µM
COC(=O)CCCCC(=O)c1c(C)[nH]c(/C=C2\N=C(c3ccc[nH]3)C=C2OC)c1C	1 µM	2.32 µM	0.482 µM	1.81 µM	0.273 µM	1.03 µM	0.103 µM	1.74 µM	0.47 µM	1.88 µM	0.802 µM	2.17 µM	1.17 µM	2.47 µM	1.53 µM	3.16 µM	0.851 µM	2.24 µM	2.06 µM	6.38 µM
Cc1cccc2c3c(sc12)C(c1ccc(Cl)cc1)C(C#N)=C(N)O3 (centres undefined)	0.834 µM	14.1 µM	0.459 µM	11.6 µM	0.3 µM	1.21 µM	0.497 µM	13.7 µM	0.395 µM	12.8 µM	1.41 µM	14.8 µM	3.69 µM	20.7 µM	0.452 µM	12.6 µM	0.214 µM	0.71 µM	5.92 µM	21.7 µM
O=C1OC(C(O)CO)C(O)=C1O (centres undefined)	1540 µM and 1610 µM	2940 µM and 3060 µM	1610 µM and 1690 µM	3040 µM and 3110 µM	5590 µM and 5090 µM	> 10000 µM	2130 µM and 1550 µM	5040 µM and > 4890 µM	2190 µM and > 4180 µM	5670 µM and > 5820 µM	2120 µM and 1960 µM	4020 µM	2530 µM and > 10000 µM	6230 µM and > 10000 µM	> 10000 µM	> 10000 µM	2460 µM and > 4760 µM	4050 µM and > 6140 µM	9040 µM and > 4840 µM	> 10000 µM
CC(C)(O)CNc1nc(Nc2ccnc(C(F)(F)F)c2)nc(-c2cccc(C(F)(F)F)n2)n1	23.5 µM	66.7 µM	21.6 µM	67.8 µM	21.1 µM	58.2 µM	13.7 µM	41.8 µM	27.4 µM	> 100 µM	23.1 µM	76.4 µM	17.8 µM	36.2 µM	34.4 µM	> 100 µM	15.9 µM	42.7 µM	26.6 µM	82.4 µM
Oc1cccc2ccc(N/N=C/c3cc(CN4CCOCC4)c(O)c4ncccc34)nc12	< 0.0119 µM	1.47 µM	0.0645 µM	6.22 µM	0.0298 µM	1.49 µM	0.053 µM	5.62 µM	0.0346 µM	4.92 µM	0.0372 µM	13.4 µM	0.0634 µM	6.19 µM	0.0169 µM	12.6 µM	0.0253 µM	2 µM	0.0497 µM	13.5 µM
CC(C)(Br)C(=O)C(Br)Br	5.34 µM	22.5 µM and 9.58 µM		70.6 µM	6.35 µM			5.1 µM		11 µM	7.42 µM	27.1 µM and 26 µM	4.93 µM	22.1 µM and 9.12 µM		33.9 µM and 59.4 µM	5.04 µM	26.7 µM and 9.38 µM	4.95 µM	23.5 µM and 9.15 µM
c1ccc2cc(-c3n(Cc4ccc5ccccc5n4)c4ccccc4[n+]3Cc3ccc4ccccc4n3)ccc2c1	0.717 µM	1.95 µM	0.395 µM	1.65 µM	0.152 µM	0.462 µM	0.348 µM	1.4 µM	0.184 µM	1.12 µM	0.332 µM	1.42 µM	0.423 µM	1.65 µM	0.315 µM	1.32 µM	0.19 µM	0.746 µM	0.413 µM	1.83 µM
NS(=O)(=O)c1ccc(-c2cc3ccncc3cc2OCc2ccccc2)cc1	> 19 µM	> 25 µM	16.4 µM	> 25 µM	6.43 µM	> 19.3 µM	> 13.6 µM	> 25 µM	> 20.5 µM	> 25 µM	> 20.1 µM	> 25 µM	20.6 µM	> 25 µM	> 25 µM	> 25 µM	5.27 µM	> 25 µM	> 23.1 µM	> 25 µM
